{"source": "patent US12269811B2", "about": "“Synthesis of omecamtiv mecarbil” (Amgen Inc., priority 2017, dated 2025)", "type_in_all_cases": "physicochemical", "key": {"[1]": {"test": "Piperazine levels upon storage"}, "[2]": {"test": "Dynamic vapor sorption (DVS) isothermal plot of PMEC salt forms", "details": "FIG. 1; for DVS weight increase onset: relative humidity at onset of weight increase", "procedure": "The DVS weight increase onset for each salt was measured as noted—35% relative humidity (RH) for the hemi-sulfate; 50% RH for the acetate; and 65% RH for the phosphate hydrate. The phosphate hydrate is termed phosphate or hemi-phosphate and the hemi-sulfate is termed sulfate or hemi-sulfate in the figure."}, "[3]": {"test": "Solubility in isopropanol"}}}
{"compound": "COC(=O)N1CCNCC1", "note": "[PMEC freebase, methyl piperazine-1-carboxylate]", "values": [{"measurement": "piperazine levels upon storage", "setting": "[1]; storage at 25° C.", "value": "up to 18 LC area %"}]}
{"compound": "COC(=O)N1CCNCC1", "note": "[PMEC phosphate hydrate, methyl piperazine-1-carboxylate]", "values": [{"measurement": "hygroscopicity", "setting": "[2]; compared with the sulfate and acetate salts", "value": "less hygroscopic than the corresponding sulfate and acetate salt"}, {"measurement": "DVS weight increase onset", "setting": "[2]", "value": 65, "unit": "% RH"}, {"measurement": "piperazine levels upon storage", "setting": "[1]; upon storage, level <0.4 GC area %", "value": "do not increase upon storage"}]}
{"compound": "COC(=O)N1CCNCC1", "note": "[acetate, methyl piperazine-1-carboxylate]", "values": [{"measurement": "DVS weight increase onset", "setting": "[2]", "value": 50, "unit": "% RH"}]}
{"compound": "COC(=O)N1CCNCC1", "note": "[hemi-sulfate, methyl piperazine-1-carboxylate]", "values": [{"measurement": "DVS weight increase onset", "setting": "[2]", "value": 35, "unit": "% RH"}]}
{"compound": "COC(=O)N1CCN(Cc2cccc(NC(=O)Nc3ccc(C)nc3)c2F)CC1", "note": "[omecamtiv mecarbil]", "values": [{"measurement": "solubility in isopropanol", "setting": "[3]; 20° C.", "value": "about 10 mg/mL"}, {"measurement": "solubility", "setting": "[3]; 20 °C, organic solvent or mixture", "value": "~12", "unit": "mg/mL"}]}
